Columns and labels:
[1] = system: HC1 human colon carcinoma; assay: HC1 human colon carcinoma xenograft in mice, tumor weight inhibition; assay type: in vivo, Nu/Nu CD-1 mice; conditions: 14 day delay
From the text: The HC1 human colon carcinoma xenograft was obtained in 1987 from Drs. Peter and Janet Houghton, St. Jude Children's Hospital, Memphis, TN. The tumor is a moderately well-differentiated adenocarcinoma of the ascending colon [British Journal of Cancer, 37, p 213-223 (1987)]. The first passage tumor was stored in liquid nitrogen using standard techniques. The tumors were maintained in serial passage Nu/Nu CD-1 mice (Charles River Laboratories, Portage, MI.).
The study testing the efficacy of these compounds against HC1 human colon carcinoma was initiated by removing a tumor from passage animals and mincing it into 1 to 3 mm square fragments using sterile techniques. Tumor pieces were checked for sterility using both an Antibiotic Medium 1 and Brain Heart Infusion (Difco; Detroit, MI). Tumor pieces were implanted subcutaneously in the auxilary region of recipient mice by trocar. Drug therapy on the appropriate schedule was initiated 14 days after tumor implantation. Drugs were dissolved in Emulphor for all experiments. All animals were weighed at the beginning and end of drug treatment. Food and water were provided ad libitum. On day 14 after the initiation of therapy, two dimensional measurements (width and length) of all tumors were taken using electronic calipers interfaced to a computer. Tumor weights were calculated from these measurements using the following formula: Tumor Weight (mg) = Tumor Length (mm) X Tumor Width (mm)²/2
For all data, the tumor weight was rounded to the nearest tenth of a gram for analysis. No group is included in the analysis for therapeutic activity in which deaths attributable to drug toxicity exceeded 20 percent of the treated group. Compounds are considered active if more than 60 percent inhibition of tumor growth, as determined by tumor weight, is achieved at maximally tolerated doses.
In Table 2 which follows, Column 1 gives the example number of the compound tested; Column 2, the dose level; Column 3, the route administered; Column 4, the dosage schedule; Column 5, the percent inhibition of the tumor; and Column 6; the toxic deaths observed prior to completion of the study.

[2] = system: Human Cytomegalovirus (HCMV) strain AD169; assay: Human Cytomegalovirus Test (plaque inhibition in WI-38 cells); assay type: cell-based; conditions: read-out: Percent Plaque Inhibition at Specified µg/ml conc.
Experimental: WI-38 cells (American Type Culture Collection; CCL-35) were seeded into 24-well plates in MEM media (GIBCO) supplemented with 10% fetal bovine serum and penicillin/streptomycin. The plates wre incbated at 37°C, in 5 percent carbon dioxide in a humidified incubator for 3 days. Human Cytomegalovirus (HCMV) strain AD169 (American Type Culture Collection) was added to each well (40 plaque forming unites in 100 µl of media) and the virus was allowed to adsorb to the cells for 2 hours at room temperature. The compound of Example 5 was dissolved in 100 percent dimethylsulfoxide at a concentration of 20 mgs/ml and diluted with media to yield final concentrations of 50, 25, 12.5, 6.25, 3.13, 1.6, 0.8, 0.4, 0.2, and 0.1 µg/ml in one set of experiments and 32, 10, 3.2, 1, and 0.32 µg/ml in another set of experiments. Each concentration was done in duplicate. In all experiments, Cytovene (DHPG) was used as a positive control.
The infected cells were incubated for 10 days at 37°C, 5 percent carbon dioxide, in an humidified incubator without changes of media. After incubation, the cells were fixed for at least 15 minutes with 10 percent formalin and rinsed with water. After rinsing, the cells were stained for at least 15 minutes with crystal violet and allowed to dry. HCMV induced plaques were counted with the aid of an iverted microscope. The number of viral plaques appearing in cells treated with each concentration of the Example 5 compound was compared to the number of viral plaques in cells left untreated ("no-drug control") and the percent inhibition of viral plaque formation was calculated. The concentration of the Example 5 compound required to inhibit viral plaque formation by 50 percent was determined using linear regression analysis.

[3] = 05 mg/kg, Intra-Peritoneal 0.5 ml, 1,3,5,7 9
[4] = 10 mg/kg, Intra-Peritoneal 0.5 ml, 1,3,5,7 9
[5] = 20 mg/kg, Intra-Peritoneal 0.5 ml, 1,3,5,7 9
[6] = 40 mg/kg, Intra-Peritoneal 0.5 ml, 1,3,5,7 9
[7] = 80 mg/kg, Intra-Peritoneal 0.5 ml, 1,3,5,7,9

Compound: CNc1nc(N)nc2c1ncn2[C@@H]1O[C@H](CO)[C@@H](O)C1(F)F [Example 5, 2-deoxy-2,2-difluoro-D-ribofuranosyl-1-β-(2-amino-6-methylaminopurine)]
- Percent Inhibition of Tumor [1, 3]: 92%
- Toxic Deaths [1, 3]: 0/8
- Percent Inhibition of Tumor [1, 4]: 92%
- Toxic Deaths [1, 4]: 0/8
- Percent Inhibition of Tumor [1, 5]: 93%
- Toxic Deaths [1, 5]: 0/8
- Percent Inhibition of Tumor [1, 6]: 94%
- Toxic Deaths [1, 6]: 1/8
- Percent Inhibition of Tumor [1, 7]: 95%
- Toxic Deaths [1, 7]: 0/8
- inhibition at 0.2 µg/mL ([2]; Human betaherpesvirus 5, AD169, 240 h, 0.2 µg/ml, WI-38 cells, 10 days): 24%
- inhibition at 0.4 µg/mL ([2]; Human betaherpesvirus 5, AD169, 240 h, 0.4 µg/ml, WI-38 cells, 10 days): 17.2%
- inhibition at 0.8 µg/mL ([2]; Human betaherpesvirus 5, AD169, 240 h, 0.8 µg/ml, WI-38 cells, 10 days): 38%
- inhibition at 1.6 µg/mL ([2]; Human betaherpesvirus 5, AD169, 240 h, 1.6 µg/ml, WI-38 cells, 10 days): 41.4%
- inhibition at 6.25 µg/mL ([2]; Human betaherpesvirus 5, AD169, 240 h, 6.25 µg/ml, WI-38 cells, 10 days): 86.2%
- inhibition at 12.5 µg/mL ([2]; Human betaherpesvirus 5, AD169, 240 h, 12.5 µg/ml, WI-38 cells, 10 days): 81%
- inhibition at 25 µg/mL ([2]; Human betaherpesvirus 5, AD169, 240 h, 25 µg/ml, WI-38 cells, 10 days): 89.6%
- inhibition at 3.12 µg/mL ([2]; Human betaherpesvirus 5, AD169, WI-38, 240 h): 62%

From EP0576227A2, “2'-Deoxy-2',2'-difluoro(2,6,8-substituted) purine nucleosides having anti-viral and anti-cancer activity and intermediates” (ELI LILLY AND COMPANY, priority 1992, dated 1993)
